In patent US10646521B2, “Microbiota composition, as a marker of responsiveness to chemotherapy, and use of microbial modulators (pre-, pro- or synbiotics) for improving the efficacy of a cancer treatment” (INSTITUT GUSTAVE ROUSSY, priority 2013, dated 2020):
“And” between values parts separate entries of the source, which are not always exact repeats. Equal values may be shown once.

What was measured:
[1] = 18 h post CTX
Method: Gut barrier integrity was assessed by permeability to FITC-dextran (4 kDa, Sigma Aldrich). Fourteen hours after i.p. injection with NaCl or CTX at 100 or 200 mg/kg, mice were fasted for 4 hours and then orally fed with FITC-dextran at 0.6 mg/g body weight (80 mg/ml in NaCl, 18 h after NaCl/CTX treatment). After 3 to 4 h, the mice were euthanized and exsanguinated by cardiac puncture. Plasma FITC levels were subsequently determined using a fluorescence spectrophotometer (λex/λem=485/535 nm).

splenic pTh17 cells = assay: Flow cytometry of splenic pTh17 / TH1 / Tc1 cells
Method: For cross-linking experiment, 2×10^5 total splenocytes per well (after red cell lysis) were incubated in MaxiSorp plates (Nunc) precoated with anti-CD3ε mAb (145-2C11) (0.5 μg per well; eBioscience) and/or anti-CD28 mAb (37.51) (2 μg/ml; BD). The supernatants were assayed at 48 h by ELISA for mouse IL-17A (eBioscience) and IFNγ (BD). […] For intracellular, cells were incubated for 4 h at 37° C. with 50 ng/ml of PMA, 1 μg/ml of ionomycin and BD Golgi STOP™. After membrane staining, cells were stained with anti-IL-17A, IFNγ, T-bet and RORγt using eBioscience FoxP3/Transcription factor staining buffer set.

gut microbiota [2] = settings: NOD1-/-xNOD2-/- naive mice, CTX compared with PBS, seven days
[3] = test system: small intestine mucosal microbiota; settings: mouse, in vivo
commensal bacteria = type: in vivo, mice
Method: Mesenteric lymph nodes and spleens were aseptically removed, smashed in PBS and plated onto COS agar plates (BioMérieux), for aerobic and anaerobic growth. After 48 h of culture, single colonies were isolated and stocked in glycerol at −80° C.
Serial dilutions of feces from naïve mice or tumor bearers treated with NaCl or CTX, vancomycin or broad spectrum antibiotics (ATB) (ampicillin+streptomycin+colistin), were plated onto COS agar plates and after 48 h, single colonies were isolated and Gram staining was performed. The identification of specific bacteria was accomplished through the combination of morphological tests and the analysis through VITEK® automated system (BioMérieux, France) and verified in mass spectrometry (MALDI-TOF, see below) performed at Pasteur Institute, Paris, France.

[4] = test system: Lysozyme M and RegIIIγ transcription; settings: duodenum, 18 hours post-CTX
Method: Lamina propria cells were isolated from duodenum, ileum and colon 18 h post CTX, and total RNA extraction and genomic DNA removal were performed with the RNeasy Mini Kit (Qiagen, Hilden, Germany), following the manufacturer's instructions. Total RNA extraction and genomic DNA removal of ilea or duodena were performed with the RNeasy Mini Kit (Qiagen, Hilden, Germany), following the manufacturer's instructions. Total RNA was then reverse transcribed into cDNA with the SuperScript III Reverse Transcriptase and the RNaseOUT™ Recombinant Ribonuclease Inhibitor (Life Technologies, Saint Aubin, France), in the presence of random primers (Promega, Charbonnieres, France) and the Deoxynucleoside Triphosphate Set, PCR grade (Roche Diagnostics, Meylan, France). Expression of RegIIIγ (Mm00441127_m1) and LysM (Mm01612741_m1)-related genes was analyzed with TaqMan® Gene Expression Assays using the Universal Master Mix II on a StepOnePlus™ Real-Time PCR System (Life Technologies, France). Quantitative RT-PCR data were invariably normalized to the expression levels of the housekeeping gene peptidylprolyl isomerase A (Ppia) by means of the 2^−ΔCt method.

[5] = test system: bacterial groups associated with small intestine mucosa
splenocytes = assay: TCR cross-linking of splenocytes, IL-17 and IFNγ ELISA; type: in vivo, mice
[6] = test system: lamina propria cells of the small intestine; settings: 7 days post-CTX
[7] = test system: small intestine epithelium; settings: mouse, in vivo
Method: The whole small intestine (duodenum, jejunum and ileum) was removed, cleaned from fecal content and fixed in 4% of PFA for 1 h. Re-hydration of the tissue was performed in 15% sucrose for 1 h and in 30% sucrose overnight. Depending on the experiment, the small intestine was entirely rolled, or cut into small pieces, then embedded in optimum cutting temperature (OCT) compound (Sakura), snap frozen and longitudinal or transversal […] were prepared.
For histological analyses, the longitudinal sections were counterstained with hematoxilin and eosin. For the histological quantitative analyses, inflammatory foci, altered villi and the thickness of lamina propria were scored for each section, while the number of goblet cells was counted for each villus. […] Then, a rabbit polyclonal antibody against the lysozyme protein (1:500 for 1 h, Thermo Scientific) and ALEXA FLUOR 488 Fragment of goat anti-rabbit IgG (1:300 for 1 h, Molecular Probes) were used. All steps were performed at room temperature. Lysozyme-positive areas were quantified on mosaic images using the Histolab software (Microvision Instruments). The quantification of Paneth cells was performed measuring the average area of the Lysozyme-positive clusters (group of Paneth cells) as well as the emission/μm^2 of those clusters (not shown).

[8] = test system: CBir1 TCR Tg CD4+ T cells; settings: mouse, in vivo
Method: CD4^+ T cells were isolated from B6.CBir1 TCR Tg mice using anti-mouse CD4 magnetic beads. Briefly, splenic cells were washed twice and incubated with anti-CD4 magnetic beads at 4° C. for 30 min and then separated by magnetic field. When checked by flow cytometry, over 95% of the cells were CD4^+ T cells. One million CBir1 Tg T cells (CD45.1^+) were adoptively transferred i.v. into CTX or NaCl treated-naïve congenic (CD45.2^+) mice two days after chemotherapy and spleens were harvested at day 5-7 post-transfer for flow cytometry analyses and ex vivo splenocyte restimulations. Flow cytometry analyses gated on CD45.1^+ cells to appreciate percentages of intracellular IL-17^+ or IFNg^+ cells after PMA/ionomycin 5 h restimulation in the presence of monensin.

splenic CD4+ T cells = settings: mouse, in vivo
MCA205 sarcomas = type: in vivo, C57BL/6 mice; settings: mouse, in vivo
memory CD4+ T cells = settings: 11 patients, after metronomic CTX
Method: Ex vivo restimulation assays using patients' autologous monocytes loaded with defined bacteria for 3 hours, neutralized with antibiotics, then cultured in GM-CSF+IL-4 (to differentiate into DC) and incubated for 3 days with CD4^+CD45RO^+ T cells (at a 1:2 ratio) purified from autologous blood at various time points (Day 0: before CTX, Day 12-46: after CTX, NSCLC: non small cell lung cancer). A. Cytokine release (IFNγ, TNF, IL-10) was monitored using ELISA. […] C. […] B-D show the cytokine levels in the 40 h supernatants of 250.000 memory CD4^+ T cells for each individual patient pre- and post-CTX administration.
The responses that were monitored included those against enterococci (E. hirae and E. faecalis, both immunogenic in mice receiving CTX), lactobacilli (L. johnsonii and the less relevant L. plantarum), as well as against E. coli.

gut microbiota [9] = settings: Zhang Y et al., 2014; cited from earlier work
tumor = assay: Effects of ATB regimen on the efficacy of CTX (tumor outgrowth); type: in vivo, mice; settings: ATB regimen 15 days prior to tumor inoculation
Method: Distinct ATB regimen (Zhang Y et al. Toxicology and Applied Pharmacology 277 (2014) 138-145) were administered for 15 days prior to tumor inoculation and CTX therapy every other 13 days. Tumor outgrowth was monitored with a caliper twice a week. […] Each experiment contains several groups of 5 mice. *Anova test: p<0.05.

**Q.** For `O=P1(N(CCCl)CCCl)NCCCO1` (centres unmarked) [CTX, cyclophosphamide], which “intestinal permeability (orally administered FITC-dextran detectable in blood)” value [1] is on record?
**A.** increase

**Q.** What about the “frequency of pathogenic Th17 (pTh17) cells within the spleen” value (splenic pTh17 cells; 7 days after treatment) of the same compound?
**A.** increased

**Q.** And the “priming of splenic pTH17 cells in NOD2-/- mice” value (splenic pTh17 cells; following CTX administration)?
**A.** augmented

**Q.** And the “Clostridiaceae in the small intestines” value (gut microbiota [2])?
**A.** overrepresentation

**Q.** What about the “Erysipelotrichaceae in SI” value (gut microbiota [2]) of the same compound?
**A.** relative loss

**Q.** What about the Lachnospiraceae in feces (gut microbiota [2]) of the same compound?
**A.** relative loss

**Q.** And the “Porphyromonadaceae (mainly Barnesiella) in the stool” value (gut microbiota [2])?
**A.** overrepresentation

**Q.** What about the “bacterial species/groups from the Firmicutes phylum in mucosa” value [3] of the same compound?
**A.** reduction

**Q.** What about the “dysbiosis at early time points” value [3] of the same compound?
**A.** failed to cause a major dysbiosis

**Q.** What about the “microbial composition of small intestine and caecum” value [3] of the same compound?
**A.** significantly altered the microbial composition of the small intestine (but not of the caecum)

**Q.** What about the “proportion of Spirochaetes phylum” value [3] of the same compound?
**A.** reduction

**Q.** What about the “relative abundance of the Treponema genus” value [3] of the same compound?
**A.** 0%

**Q.** What about the “relative abundance: Butyrate-producing bacterium M62/1 (AY305309)” value [3] of the same compound?
**A.** 0.07% and 0.06%

**Q.** What about the “relative abundance: Butyrate-producing bacterium SM4/1 (AY305314)” value [3] of the same compound?
**A.** 0.21% and 0.20%

**Q.** What about the “relative abundance: Clostridium sp ASF502 (AF157053)” value [3] of the same compound?
**A.** 0.01% and 0.00%

**Q.** And the “relative abundance: Clostridium sp. A9 (DQ789119)” value [3]?
**A.** 0.23% and 0.27%

**Q.** And the “relative abundance: Clostridium sp. Clone-33 (AB622843)” value [3]?
**A.** 0.02% and 0.00%

**Q.** What about the “relative abundance: Clostridium sp. Clone-40 (AB622844)” value [3] of the same compound?
**A.** 0.05% and 0.02%

**Q.** What about the “relative abundance: Clostridium sp. Clone-49 (AB622849)” value [3] of the same compound?
**A.** 0.07% and 0.09%

**Q.** And the “relative abundance: Clostridium sp. Culture-41 (AB622820)” value [3]?
**A.** 0.10% and 0.08%

**Q.** What about the “relative abundance: Clostridium sp. Culture-54 (AB622823)” value [3] of the same compound?
**A.** 0.03% and 0.04%

**Q.** And the “relative abundance: Coprococcus catus; L8 (AB361624)” value [3]?
**A.** 0.03%

**Q.** And the “relative abundance: Lachnospiraceae bacterium 14-2 (DQ789124)” value [3]?
**A.** 0.05% and 0.02%

**Q.** And the “relative abundance: Lactobacillus reuteri; LU3 (AY735406)” value [3]?
**A.** 0.24% and 0.14%

**Q.** And the “relative abundance: Roseburia faecis (T); M7211 (AY305310)” value [3]?
**A.** 0.35% and 0.41%

**Q.** And the “relative abundance: Roseburia intestinalis; XB6B4 (AM055815)” value [3]?
**A.** 0.02% and 0.00%

**Q.** What about the “relative abundance: Rumen bacterium NK4A66 (GU124467)” value [3] of the same compound?
**A.** 0.07% and 0.10%

**Q.** What about the “relative abundance: Tannerella forsythia; OB071 (JN713185)” value [3] of the same compound?
**A.** 0.02%

**Q.** And the “Lactobacillus johnsonii cultured from lymphoid organs” value (commensal bacteria; 48 h post therapy)?
**A.** > 40 % cases

**Q.** What about the “mice with translocation of commensal bacteria into mesenteric lymph nodes and spleens” value (commensal bacteria; 48 h post-CTX) of the same compound?
**A.** > 50 % mice

**Q.** What about the “bacterial translocation (colonies from spleens, anaerobic conditions) in NOD1xNOD2-/-” value (commensal bacteria; 48 hrs post-CTX) of the same compound?
**A.** enhanced

**Q.** And the “expression of the antibacterial enzyme lysozyme” value [4]?
**A.** upregulated

**Q.** And the “relative amounts of SFB and TM7 or Clostridium group XIV” value ([5]; day 7 post-CTX (not shown))?
**A.** No CTX-specific modulations

**Q.** What about the “abundance of lactobacilli and enterococci” value ([5]; small intestine mucosa, 7 days post-CTX) of the same compound?
**A.** reduction

**Q.** And the “bacterial counts of the Clostridium leptum” value ([5]; tumor bearers, 7 days post-CTX)?
**A.** not affected

**Q.** What about the “total bacterial load of the small intestine” value ([5]; tumor bearers, 7 days post-CTX) of the same compound?
**A.** not affected

**Q.** What about the “polarization of splenic CD4+ T cells towards Th1 and Th17 pattern” value (splenocytes; day 7 after treatment) of the same compound?
**A.** induced the polarization

**Q.** What about the “increase of ex vivo IL-17 release by TCR-stimulated splenocytes” value (splenocytes; germ-free (GF) mice) of the same compound?
**A.** failed to do so

**Q.** What about the “ex vivo IL-17 release by TCR-stimulated splenocytes” value (splenocytes; specific pathogen-free (SPF) mice) of the same compound?
**A.** increased

**Q.** And the “frequencies of CD103+CD11b+ dendritic cells in lamina propria of the small intestine” value [6]?
**A.** significantly decreased

**Q.** What about the “frequencies of TCRαβ+CD3+ T cells expressing RORγt in lamina propria of the small intestine” value [6] of the same compound?
**A.** significantly decreased

**Q.** What about the “inflammatory status of the gut epithelial barrier (histology)” value [7] of the same compound?
**A.** shortening of small intestinal villi, discontinuities of the epithelial barrier, interstitial edema and focal accumulation of mononuclear cells in the lamina propria

**Q.** And the “immune responses against commensal bacteria (CBir1 Tg T cells)” value [8]?
**A.** induced TCR-restricted, antigen specific immune responses against commensal bacteria

**Q.** And the “mice with Th1 memory responses against L. johnsonii” value (splenic CD4+ T cells)?
**A.** 50 % of mice

**Q.** And the “antitumor effects against MCA205 sarcomas, GF versus SPF mice” value (MCA205 sarcomas)?
**A.** reduced in GF compared with SPF mice

**Q.** What about the “immune-dependent anti-sarcoma effects in NOD1-/-xNOD2-/- mice” value (MCA205 sarcomas) of the same compound?
**A.** significantly enhanced

**Q.** And the “immune-dependent anti-sarcoma effects in single knock out mice (NOD1 or NOD2 or RIP2 or CARD15) compared with WT” value (MCA205 sarcomas)?
**A.** not ameliorated

**Q.** What about the “patients developing memory Th1 responses against E. coli” value (memory CD4+ T cells) of the same compound?
**A.** 18%

**Q.** And the “patients developing memory Th1 responses against L. johnsonii” value (memory CD4+ T cells)?
**A.** 18%

**Q.** And the “patients developing memory Th1 responses against enterococci” value (memory CD4+ T cells)?
**A.** 54%

**Q.** What about the “patients mounting a cellular immune response against L. plantarum” value (memory CD4+ T cells) of the same compound?
**A.** 9%

**Q.** With `O=C(O)c1cn(C2CC2)c2cc(N3CCNCC3)c(F)cc2c1=O` [cifloxacin] as the compound, how does the “Bacteroidetes in gut microbiota” value (gut microbiota [9]) read?
**A.** marked suppression

**Q.** And the “effect on the CTX-induced antitumor effects” value (tumor)?
**A.** not efficient
